From US9340590B2 (priority 2011, dated 2016)
Read-outs that look alike come from different tables or passages of the source. Positions of bridges follow the written chain, without caps; N, C: chain ends. Non-standard residues stand in square brackets, D forms with d. Residues, ends and D or L forms follow the SMILES beside them. Phe(3,4-(OMe)2) = COc1ccc(C[C@H](N)C(=O)O)cc1OC

Assays:
Test in all cases: cell-based
[1] = molecular target: hNav1.7 (Homo sapiens, UniProt Q15858); assay type: cell-based; conditions: IonWorks Quattro
[2] = molecular target: hNav1.5 (Homo sapiens, UniProt Q14524); conditions: IonWorks Quattro, read-out: IWQ Use Nav1.5
[3] = molecular target: hNav1.3 (Homo sapiens, UniProt Q9NY46); conditions: IonWorks Quattro, read-out: IWQ Use Nav1.3
[4] = clamped to −110 mV, depolarized to −10 mV, 5 min after compound, n=2
[5] = use-dependent protocol, hNav1.7, read-out: IWQ Use Nav1.7
[6] = use-dependent protocol, hNav1.5
[7] = use-dependent protocol, hNav1.3

Chain of hNav1.5 (Q14524 whole entry, looked up): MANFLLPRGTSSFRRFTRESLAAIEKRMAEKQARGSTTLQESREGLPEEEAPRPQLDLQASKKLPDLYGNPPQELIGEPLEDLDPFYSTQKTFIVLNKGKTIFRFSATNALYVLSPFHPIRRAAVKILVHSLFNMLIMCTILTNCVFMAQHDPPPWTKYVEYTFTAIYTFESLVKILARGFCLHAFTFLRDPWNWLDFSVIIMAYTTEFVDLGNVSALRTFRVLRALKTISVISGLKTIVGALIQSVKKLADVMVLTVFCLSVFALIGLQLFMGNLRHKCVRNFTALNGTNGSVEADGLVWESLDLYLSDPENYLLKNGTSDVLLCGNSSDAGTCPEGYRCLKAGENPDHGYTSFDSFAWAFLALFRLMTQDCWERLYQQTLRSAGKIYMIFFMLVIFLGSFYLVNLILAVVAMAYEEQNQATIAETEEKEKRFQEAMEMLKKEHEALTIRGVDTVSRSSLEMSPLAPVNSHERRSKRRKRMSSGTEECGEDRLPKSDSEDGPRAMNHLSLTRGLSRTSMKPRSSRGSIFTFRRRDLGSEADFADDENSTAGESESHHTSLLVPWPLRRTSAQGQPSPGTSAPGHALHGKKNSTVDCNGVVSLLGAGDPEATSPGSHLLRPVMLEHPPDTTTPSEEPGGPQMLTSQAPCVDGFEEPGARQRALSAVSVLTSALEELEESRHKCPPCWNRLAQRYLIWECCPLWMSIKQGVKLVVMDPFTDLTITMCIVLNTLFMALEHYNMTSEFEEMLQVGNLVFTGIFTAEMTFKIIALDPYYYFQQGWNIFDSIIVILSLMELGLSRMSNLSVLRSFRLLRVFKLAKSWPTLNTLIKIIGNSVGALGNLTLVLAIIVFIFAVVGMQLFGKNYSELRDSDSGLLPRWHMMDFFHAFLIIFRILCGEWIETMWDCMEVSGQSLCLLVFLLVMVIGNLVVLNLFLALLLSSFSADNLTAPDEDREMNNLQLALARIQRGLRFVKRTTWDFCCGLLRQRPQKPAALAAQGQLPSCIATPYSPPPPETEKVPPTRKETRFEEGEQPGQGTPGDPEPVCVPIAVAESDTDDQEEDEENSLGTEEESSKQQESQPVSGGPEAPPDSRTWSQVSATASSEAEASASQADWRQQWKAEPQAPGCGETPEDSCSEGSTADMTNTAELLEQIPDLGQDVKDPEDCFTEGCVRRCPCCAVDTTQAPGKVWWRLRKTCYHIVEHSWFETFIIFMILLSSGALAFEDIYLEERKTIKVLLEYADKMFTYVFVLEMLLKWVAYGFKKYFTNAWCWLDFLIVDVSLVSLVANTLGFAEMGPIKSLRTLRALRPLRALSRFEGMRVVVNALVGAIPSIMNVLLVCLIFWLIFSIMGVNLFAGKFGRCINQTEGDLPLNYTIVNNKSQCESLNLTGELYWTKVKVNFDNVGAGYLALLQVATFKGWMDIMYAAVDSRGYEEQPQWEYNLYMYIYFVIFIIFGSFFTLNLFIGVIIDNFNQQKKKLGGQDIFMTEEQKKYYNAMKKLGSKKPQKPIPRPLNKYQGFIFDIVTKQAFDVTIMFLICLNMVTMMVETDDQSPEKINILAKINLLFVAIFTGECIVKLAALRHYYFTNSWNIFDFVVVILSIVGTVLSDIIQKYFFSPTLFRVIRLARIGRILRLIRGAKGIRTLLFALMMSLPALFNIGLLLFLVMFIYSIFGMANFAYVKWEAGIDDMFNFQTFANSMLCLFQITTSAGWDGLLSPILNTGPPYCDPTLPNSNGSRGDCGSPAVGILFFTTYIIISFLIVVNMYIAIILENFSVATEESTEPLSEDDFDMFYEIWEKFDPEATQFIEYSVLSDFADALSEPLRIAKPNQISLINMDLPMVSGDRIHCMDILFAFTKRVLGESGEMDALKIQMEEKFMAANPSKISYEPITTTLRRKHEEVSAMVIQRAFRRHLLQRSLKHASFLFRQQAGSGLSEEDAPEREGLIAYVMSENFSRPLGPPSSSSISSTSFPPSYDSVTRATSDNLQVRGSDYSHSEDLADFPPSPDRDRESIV
Chain of hNav1.3 (Q9NY46 whole entry, looked up): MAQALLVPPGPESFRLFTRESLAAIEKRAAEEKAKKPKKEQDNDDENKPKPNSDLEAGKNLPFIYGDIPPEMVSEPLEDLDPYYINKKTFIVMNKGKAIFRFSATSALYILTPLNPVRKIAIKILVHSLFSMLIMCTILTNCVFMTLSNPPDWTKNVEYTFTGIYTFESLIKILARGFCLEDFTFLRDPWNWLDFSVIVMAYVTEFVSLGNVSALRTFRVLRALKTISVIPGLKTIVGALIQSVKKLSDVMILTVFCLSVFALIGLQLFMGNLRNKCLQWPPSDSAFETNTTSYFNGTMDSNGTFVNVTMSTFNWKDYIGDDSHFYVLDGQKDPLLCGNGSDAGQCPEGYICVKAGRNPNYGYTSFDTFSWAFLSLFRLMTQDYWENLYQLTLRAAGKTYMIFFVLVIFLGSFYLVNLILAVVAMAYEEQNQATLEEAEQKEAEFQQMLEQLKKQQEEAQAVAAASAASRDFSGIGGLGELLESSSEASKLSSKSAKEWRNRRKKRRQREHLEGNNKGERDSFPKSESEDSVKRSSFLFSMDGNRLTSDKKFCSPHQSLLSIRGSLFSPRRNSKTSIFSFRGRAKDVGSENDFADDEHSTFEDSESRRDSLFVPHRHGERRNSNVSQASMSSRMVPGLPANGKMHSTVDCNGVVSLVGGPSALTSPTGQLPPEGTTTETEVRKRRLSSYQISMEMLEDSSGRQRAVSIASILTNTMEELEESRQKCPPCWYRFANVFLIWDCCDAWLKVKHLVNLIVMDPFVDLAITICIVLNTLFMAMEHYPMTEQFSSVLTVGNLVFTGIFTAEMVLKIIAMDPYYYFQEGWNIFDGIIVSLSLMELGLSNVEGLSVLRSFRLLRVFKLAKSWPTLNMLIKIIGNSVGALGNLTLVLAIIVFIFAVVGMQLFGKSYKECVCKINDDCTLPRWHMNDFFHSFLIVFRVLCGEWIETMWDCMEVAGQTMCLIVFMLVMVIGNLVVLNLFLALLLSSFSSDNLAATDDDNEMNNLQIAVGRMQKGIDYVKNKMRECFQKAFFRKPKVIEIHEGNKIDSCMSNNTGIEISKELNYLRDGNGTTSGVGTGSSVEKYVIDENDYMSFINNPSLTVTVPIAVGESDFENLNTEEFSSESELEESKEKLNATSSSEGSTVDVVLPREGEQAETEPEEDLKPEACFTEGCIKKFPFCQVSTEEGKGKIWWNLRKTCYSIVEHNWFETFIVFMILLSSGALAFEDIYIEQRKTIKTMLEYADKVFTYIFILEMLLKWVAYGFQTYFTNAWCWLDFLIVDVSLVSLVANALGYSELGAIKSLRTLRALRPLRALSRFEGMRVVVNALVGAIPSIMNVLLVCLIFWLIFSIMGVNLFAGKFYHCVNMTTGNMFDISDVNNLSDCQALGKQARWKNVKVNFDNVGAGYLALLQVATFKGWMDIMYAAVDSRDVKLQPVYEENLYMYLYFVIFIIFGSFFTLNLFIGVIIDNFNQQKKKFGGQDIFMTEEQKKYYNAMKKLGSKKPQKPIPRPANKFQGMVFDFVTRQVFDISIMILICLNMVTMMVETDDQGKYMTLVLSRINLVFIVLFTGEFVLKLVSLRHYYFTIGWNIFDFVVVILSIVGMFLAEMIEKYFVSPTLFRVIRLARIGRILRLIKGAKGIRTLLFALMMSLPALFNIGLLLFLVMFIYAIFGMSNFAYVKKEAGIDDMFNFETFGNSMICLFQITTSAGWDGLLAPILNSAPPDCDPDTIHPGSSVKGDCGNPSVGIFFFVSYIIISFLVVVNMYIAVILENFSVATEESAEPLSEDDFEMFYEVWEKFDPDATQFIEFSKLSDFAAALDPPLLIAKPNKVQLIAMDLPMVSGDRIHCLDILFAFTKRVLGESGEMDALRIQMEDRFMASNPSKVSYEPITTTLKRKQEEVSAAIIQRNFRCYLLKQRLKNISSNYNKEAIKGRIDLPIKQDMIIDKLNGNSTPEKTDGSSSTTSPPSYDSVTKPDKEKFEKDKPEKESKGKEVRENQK

## CC[C@H](C)[C@@H]1NC(=O)[C@@H]2CSSC[C@@H]3NC(=O)[C@H](C(C)C)NC(=O)[C@H](CC(C)C)NC(=O)[C@H](CC(N)=O)NC(=O)[C@@H]4CCCN4C(=O)[C@H](CCCNC(=N)N)NC(=O)[C@H](CSSC[C@H](NC(=O)[C@@H](N)CC(=O)O)C(=O)N[C@@H](CC(C)C)C(=O)NCC(=O)N[C@@H](C)C(=O)N[C@@H](Cc4ccccc4)C(=O)N[C@@H](CCCNC(=N)N)C(=O)N[C@@H](CCCCN)C(=O)N2)NC(=O)[C@H](CSSC[C@@H](C(=O)N[C@@H](CCCCN)C(=O)N[C@@H](Cc2ccc(O)cc2)C(=O)N[C@H](C(=O)N[C@@H](Cc2ccccc2)C(=O)O)C(C)C)NC(=O)[C@H](Cc2c[nH]c4ccccc24)NC(=O)[C@H](CCCNC(=N)N)NC(=O)[C@H](Cc2c[nH]cn2)NC(=O)[C@H]([C@@H](C)O)NC(=O)[C@H](CCCNC(=N)N)NC(=O)[C@H](CO)NC3=O)NC(=O)[C@H](CCCCN)NC(=O)[C@H](CC(=O)O)NC(=O)[C@H](CC(N)=O)NC(=O)[C@H](CC(=O)O)NC(=O)[C@@H]2CCCN2C1=O [compound 823] (H-DCLGAFRKCIPDNDKCCRPNLVCSRTHRWCKYVF-OH; disulfide 2-17, 9-23, 16-30)
[1]; use-dependent block, hNav1.7, read-out: IWQ Use Nav1.7
  IC50: 3400 nM
[2]; use-dependent block, hNav1.5
  IC50: > 5000 nM
[3]; use-dependent block, hNav1.3
  IC50: 3400 nM

## CC[C@H](C)[C@@H]1NC(=O)[C@@H]2CSSC[C@@H]3NC(=O)[C@H](C(C)C)NC(=O)[C@H](CC(C)C)NC(=O)[C@H](CC(N)=O)NC(=O)[C@@H]4CCCN4C(=O)[C@H](CCCNC(=N)N)NC(=O)[C@H](CSSC[C@H](NC(=O)[C@@H](N)CC(=O)O)C(=O)N[C@@H](CC(C)C)C(=O)NCC(=O)N[C@@H](Cc4ccccc4)C(=O)N[C@@H](CCSC)C(=O)N[C@@H](CCCNC(=N)N)C(=O)N[C@@H](CCCCN)C(=O)N2)NC(=O)[C@H](CSSC[C@@H](C(=O)N[C@@H](CCCCN)C(=O)N[C@H](C(=O)N[C@H](C(=O)N[C@@H](Cc2ccccc2)C(N)=O)C(C)C)C(C)C)NC(=O)[C@H](Cc2c[nH]c4ccccc24)NC(=O)[C@H](CCCCN)NC(=O)[C@H](Cc2c[nH]cn2)NC(=O)[C@H]([C@@H](C)O)NC(=O)[C@H](CCCNC(=N)N)NC(=O)[C@H](CO)NC3=O)NC(=O)[C@H](CCCCN)NC(=O)[C@H](CC(=O)O)NC(=O)[C@H](CC(N)=O)NC(=O)[C@H](CC(=O)O)NC(=O)[C@@H]2CCCN2C1=O [compound 372] (H-DCLGFMRKCIPDNDKCCRPNLVCSRTHKWCKVVF-NH2; disulfide 2-17, 9-23, 16-30)
[1]; Table 25, use, […], read-out: IWQ Use Nav1.7
  IC50: 150 nM
[2]; Table 25, use, […]
  IC50: 14800 nM
[3]; Table 25, use, […]
  IC50: 80 nM

## CC[C@H](C)[C@H](NC(=O)[C@@H](NC(=O)[C@H](Cc1ccc(O)cc1)NC(=O)[C@H](CCCCN)NC(=O)[C@@H]1CSSC[C@@H]2NC(=O)[C@H](CCCCN)NC(=O)[C@H](CC(=O)O)NC(=O)[C@H](CC(N)=O)NC(=O)[C@H](CC(=O)O)NC(=O)[C@@H]3CCCN3C(=O)[C@H]([C@@H](C)CC)NC(=O)[C@@H]3CSSC[C@H](NC(=O)[C@H](C(C)C)NC(=O)[C@H](CC(C)C)NC(=O)[C@H](CC(N)=O)NC(=O)[C@@H]4CCCN4C(=O)[C@H](CCCNC(=N)N)NC(=O)[C@H](CSSC[C@H](NC(=O)[C@@H](N)CC(=O)O)C(=O)N[C@@H](CC(C)C)C(=O)NCC(=O)N[C@@H](Cc4ccccc4)C(=O)N[C@@H](CCSC)C(=O)N[C@@H](CCCNC(=N)N)C(=O)N[C@@H](CCCCN)C(=O)N3)NC2=O)C(=O)N[C@@H](CO)C(=O)N[C@@H](CCCNC(=N)N)C(=O)N[C@@H]([C@@H](C)O)C(=O)N[C@@H](Cc2c[nH]cn2)C(=O)N[C@@H](CCCCN)C(=O)N[C@@H](Cc2c[nH]c3ccccc23)C(=O)N1)C(C)C)C(N)=O [compound 96] (H-DCLGFMRKCIPDNDKCCRPNLVCSRTHKWCKYVI-NH2; disulfide 2-17, 9-23, 16-30)
[1]; use-dependent, […], read-out: IWQ Use Nav1.7
  IC50: 280 nM
[2]; use-dependent, […]
  IC50: 10800 nM
[3]; use-dependent, […]
  IC50: 280 nM

## CC[C@H](C)[C@@H]1NC(=O)[C@@H]2CSSC[C@@H]3NC(=O)[C@H](C(C)C)NC(=O)[C@H](CC(C)C)NC(=O)[C@H](CC(N)=O)NC(=O)[C@@H]4CCCN4C(=O)[C@H](CCCNC(=N)N)NC(=O)[C@H](CSSC[C@H](NC(=O)[C@@H](N)CC(=O)O)C(=O)N[C@@H](CCCCN)C(=O)NCC(=O)N[C@@H](Cc4ccccc4)C(=O)N[C@@H](CCSC)C(=O)N[C@@H](CCCNC(=N)N)C(=O)N[C@@H](CCCCN)C(=O)N2)NC(=O)[C@H](CSSC[C@@H](C(=O)N[C@@H](CCCCN)C(=O)N[C@@H](Cc2ccc(O)cc2)C(=O)N[C@H](C(=O)N[C@@H](Cc2ccccc2)C(N)=O)C(C)C)NC(=O)[C@H](Cc2c[nH]c4ccccc24)NC(=O)[C@H](CCCCN)NC(=O)[C@H](Cc2cnc[nH]2)NC(=O)[C@H]([C@@H](C)O)NC(=O)[C@H](CCCNC(=N)N)NC(=O)[C@H](CO)NC3=O)NC(=O)[C@H](CCCCN)NC(=O)[C@H](CC(=O)O)NC(=O)[C@H](CC(N)=O)NC(=O)[C@H](CC(=O)O)NC(=O)[C@@H]2CCCN2C1=O [SEQ ID NO: 38] (H-DCKGFMRKCIPDNDKCCRPNLVCSRTHKWCKYVF-NH2; disulfide 2-17, 9-23, 16-30)
[1]; clamped to −110 mV, depolarized to −10 mV, 5 min after compound, n=2, read-out: IWQ Use Nav1.7
  IC50: 80 nM
[2]; [4]
  IC50: 6950 nM
[3]; [4]
  IC50: 60 nM

## CCC[C@@H]1NC(=O)CNC(=O)[C@H](CC(C)C)NC(=O)[C@@H](NC(=O)[C@@H](N)CC(=O)O)CSSC[C@@H]2NC(=O)[C@@H]3CSSC[C@@H](C(=O)N[C@@H](CCCCN)C(=O)N[C@@H](Cc4ccc(O)cc4)C(=O)N[C@H](C(=O)N[C@@H](Cc4ccccc4)C(N)=O)C(C)C)NC(=O)[C@H](Cc4c[nH]c5ccccc45)NC(=O)[C@H](CCCCN)NC(=O)[C@H](Cc4c[nH]cn4)NC(=O)[C@H]([C@@H](C)O)NC(=O)[C@H](CCCNC(=N)N)NC(=O)[C@H](CO)NC(=O)[C@H](CSSC[C@H](NC(=O)[C@H](CCCCN)NC(=O)[C@H](CCCNC(=N)N)NC(=O)[C@H](CC(C)C)NC1=O)C(=O)N[C@@H]([C@@H](C)CC)C(=O)N1CCC[C@H]1C(=O)N[C@@H](CC(=O)O)C(=O)N[C@@H](CC(N)=O)C(=O)N[C@@H](CC(=O)O)C(=O)N[C@@H](CCCCN)C(=O)N3)NC(=O)[C@H](C(C)C)NC(=O)[C@H](CC(C)C)NC(=O)[C@H](CC(N)=O)NC(=O)[C@@H]1CCCN1C(=O)[C@H](CCCNC(=N)N)NC2=O [compound 637]
[1]; [5]
  IC50: 95 nM
[2]; [6]
  IC50: 8000 nM
[3]; [7]
  IC50: 710 nM

## CC[C@H](C)[C@@H]1NC(=O)[C@@H]2CSSC[C@@H]3NC(=O)[C@H](C(C)C)NC(=O)[C@H](CC(C)C)NC(=O)[C@H](CC(N)=O)NC(=O)[C@@H]4CCCN4C(=O)[C@H](CCCNC(=N)N)NC(=O)[C@H](CSSC[C@H](NC(=O)[C@@H](N)CC(=O)O)C(=O)N[C@@H](CC(C)C)C(=O)NCC(=O)N[C@@H](Cc4ccccc4)C(=O)N[C@@H](CCSC)C(=O)N[C@@H](CCCNC(=N)N)C(=O)N[C@@H](CCCCN)C(=O)N2)NC(=O)[C@H](CSSC[C@@H](C(=O)N[C@@H](CCCCN)C(=O)N[C@@H](Cc2ccc(O)cc2)C(=O)N[C@H](C(=O)N[C@@H](Cc2ccccc2)C(=O)N[C@@H](Cc2ccc4ccccc4c2)C(N)=O)C(C)C)NC(=O)[C@H](Cc2c[nH]c4ccccc24)NC(=O)[C@H](CCCCN)NC(=O)[C@H](Cc2c[nH]cn2)NC(=O)[C@H]([C@@H](C)O)NC(=O)[C@H](CCCNC(=N)N)NC(=O)[C@H](CO)NC3=O)NC(=O)[C@H](CCCCN)NC(=O)[C@H](CC(=O)O)NC(=O)[C@H](CC(N)=O)NC(=O)[C@H](CC(=O)O)NC(=O)[C@@H]2CCCN2C1=O [compound 131]
[1]; use-dependent, […], read-out: IWQ Use Nav1.7 (μm)
  IC50: 50 nM
[2]; use-dependent, […]
  IC50: 2550 nM
[3]; use-dependent, […]
  IC50: 20 nM

## CC[C@H](C)[C@@H]1NC(=O)[C@@H]2CSSC[C@@H]3NC(=O)[C@H](C(C)C)NC(=O)[C@H](CC(C)C)NC(=O)[C@H](CC(N)=O)NC(=O)[C@@H]4CCCN4C(=O)[C@H](CCCNC(=N)N)NC(=O)[C@H](CSSC[C@H](NC(=O)[C@@H](N)CC(=O)O)C(=O)N[C@@H](CC(C)C)C(=O)NCC(=O)N[C@@H](Cc4ccc(OC)c(OC)c4)C(=O)N[C@@H](Cc4ccccc4)C(=O)N[C@@H](CCCNC(=N)N)C(=O)N[C@@H](CCCCN)C(=O)N2)NC(=O)[C@H](CSSC[C@@H](C(=O)N[C@@H](CCCCN)C(=O)N[C@@H](Cc2ccc(O)cc2)C(=O)N[C@H](C(=O)N[C@@H](Cc2ccccc2)C(N)=O)C(C)C)NC(=O)[C@H](Cc2c[nH]c4ccccc24)NC(=O)[C@H](CCCCN)NC(=O)[C@H](Cc2c[nH]cn2)NC(=O)[C@H]([C@@H](C)O)NC(=O)[C@H](CCCNC(=N)N)NC(=O)[C@H](CO)NC3=O)NC(=O)[C@H](CCCCN)NC(=O)[C@H](CC(=O)O)NC(=O)[C@H](CC(N)=O)NC(=O)[C@H](CC(=O)O)NC(=O)[C@@H]2CCCN2C1=O [compound 620] (H-DCLG[Phe(3,4-(OMe)2)]FRKCIPDNDKCCRPNLVCSRTHKWCKYVF-NH2; disulfide 2-17, 9-23, 16-30)
[1]; [5]
  IC50: 640 nM
[2]; [6]
  IC50: 10400 nM
[3]; [7]
  IC50: 990 nM
